We go through 17 compounds from patent US8378117B2 (priority 2005, dated 2013).

Like-named read-outs stand apart in the source and are kept apart here.

For one assay, the target named is T1, CB2 receptor (Homo sapiens, UniProt P34972).
T1 construct: expressed in transfected cells
Put plainly: Binding assay for CB2 agonists or inverse agonists (SK-N-MC membranes, [3H]-CP-55,940). The procedure, abridged: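 Membranes from SK-N-MC cells stably expressing human CB2 were incubated with radioligand and test compounds for 90 min at 30 °C in Tris-HCl buffer, pH 7.5, with MgCl2, EDTA and fatty-acid-free BSA. Filter-bound radioactivity was counted; IC50 was derived by linear regression of percent inhibition.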

A further assay concerns the target T2, CB1 receptor (Homo sapiens, UniProt P21554).
T2 construct: expressed in transfected cells
Put plainly: Binding assay for CB1 agonists or inverse agonists (SK-N-MC membranes, [3H]-CP-55,940). The settings on record: for inhibition at 1 µM: read-out: CB1 receptor binding percent inhibition, test concentration 1 μM (footnote 1); for inhibition at 0.002 µM: read-out: CB1 receptor binding percent inhibition, test concentration 0.002 μM (footnote 11); for CB1 receptor binding percent inhibition: test concentration not stated. The gist of the method: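 Membranes from SK-N-MC cells stably expressing human CB1 incubated with compound and [3H]-CP-55,940 ([…]) for 90 min at 30° C in Tris-HCl pH 7.5, MgCl2, EDTA, fatty-acid-free BSA. Non-specific binding defined with 10 uM WIN 55,212; filtration, scintillation count; IC50 by linear regression.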

The mark [1] stands for this setting: Cannabinoid CB1 Receptor Binding IC50, calculated by linear regression from percent inhibition at various test concentrations.
The mark [2] stands for this setting: read-out: CB1 receptor binding percent inhibition, test concentration 0.2 μM (footnote 2).
[3] abbreviates: test concentration 0.2 μM (footnote 2).
The mark [4] stands for this setting: test concentration 0.2 μM (footnote 2), read-out: CB2 receptor binding percent inhibition.

T2 sequence (P21554 whole entry): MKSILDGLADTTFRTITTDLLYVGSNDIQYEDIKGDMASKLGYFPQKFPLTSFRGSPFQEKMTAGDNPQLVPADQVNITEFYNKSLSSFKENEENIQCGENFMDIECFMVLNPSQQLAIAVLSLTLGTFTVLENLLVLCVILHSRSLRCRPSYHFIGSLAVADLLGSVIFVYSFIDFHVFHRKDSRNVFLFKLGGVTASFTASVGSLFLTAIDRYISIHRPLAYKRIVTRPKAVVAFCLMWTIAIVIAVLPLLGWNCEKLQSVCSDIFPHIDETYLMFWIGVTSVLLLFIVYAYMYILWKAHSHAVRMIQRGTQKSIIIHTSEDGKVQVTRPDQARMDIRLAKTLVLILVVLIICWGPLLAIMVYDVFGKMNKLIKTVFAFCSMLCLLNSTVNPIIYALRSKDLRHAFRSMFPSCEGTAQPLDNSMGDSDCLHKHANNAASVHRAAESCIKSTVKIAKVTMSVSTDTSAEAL
T1 sequence (P34972 whole entry): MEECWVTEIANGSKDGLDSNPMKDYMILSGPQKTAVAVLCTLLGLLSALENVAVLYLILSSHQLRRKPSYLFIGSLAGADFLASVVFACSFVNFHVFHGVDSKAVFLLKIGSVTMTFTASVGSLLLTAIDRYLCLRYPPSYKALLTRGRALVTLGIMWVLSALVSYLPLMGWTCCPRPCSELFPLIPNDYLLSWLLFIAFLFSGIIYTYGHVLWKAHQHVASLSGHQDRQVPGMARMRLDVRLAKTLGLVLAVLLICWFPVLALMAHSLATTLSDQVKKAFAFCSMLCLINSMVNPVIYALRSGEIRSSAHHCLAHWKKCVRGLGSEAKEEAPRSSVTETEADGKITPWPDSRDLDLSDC

Consider `CCOC(=O)[C@@H]1C2CCC(C2)[C@@H]1NC(=O)c1nn(-c2ccc(Cl)cc2Cl)c2c1CCCCC2Cc1cccc(Cl)c1` (stereo partly drawn) [Cpd 109, (2R,3S)-3-{[8-(3-chloro-benzyl)-1-(2,4-dichloro-phenyl)-1,4,5,6,7,8-hexahydro-cycloheptapyrazole-3-carbonyl]-amino}-bicyclo[2.2.1]heptane-2-carboxylic acid ethyl ester], for which the “CB2 receptor binding percent inhibition” value on CB2 receptor (test concentration not stated) turned out to be 48%. For the same compound, on CB1 receptor (calculated by linear regression from percent inhibition at various test concentrations, read-out: Cannabinoid CB1 Receptor Binding IC50), the IC50 was 300 nM. Also, on CB1 receptor (read-out: CB1 receptor binding percent inhibition, test concentration 0.5 μM (footnote 10)), the inhibition at 0.5 µM was 60%. On CB1 receptor, the inhibition at 1 µM is 72%.
Consider `O=C(N[C@@H]1c2ccccc2C[C@@H]1O)c1nn(-c2ccc(F)cc2F)c2c1CCCCC2Cc1ccc(F)cc1` (stereo partly drawn) [Cpd 119, 1-(2,4-difluoro-phenyl)-8-(4-fluoro-benzyl)-1,4,5,6,7,8-hexahydro-cycloheptapyrazole-3-carboxylic acid [(1R,2S)-2-hydroxy-indan-1-yl]-amide], for which, at CB2 receptor (test concentration not stated), the “CB2 receptor binding percent inhibition” value is 38%. For the same compound, the inhibition at 1 µM at CB1 receptor was found to be 39%.
The corresponding values for `Cn1nc(/C=C/S(=O)(=O)NN2CCOCC2)c2c1C(Cc1cccc(F)c1)CCCC2` (stereo not shown) [Cpd 125, (2E)-2-[8-(3-fluoro-benzyl)-1-methyl-1,4,5,6,7,8-hexahydro-cycloheptapyrazol-3-yl]-ethenesulfonic acid morpholin-4-ylamide] are 30% and 0%.
The corresponding values for `Cn1nc(/C=C/S(=O)(=O)NN2CCOCC2)c2c1C(Cc1ccc(F)cc1)CCCC2` (stereo not shown) [Cpd 126, (2E)-2-[8-(4-fluoro-benzyl)-1-methyl-1,4,5,6,7,8-hexahydro-cycloheptapyrazol-3-yl]-ethenesulfonic acid morpholin-4-ylamide] are 65% and 0%.
For the compound `O=S(=O)(/C=C/c1nn(-c2ccc(F)cc2F)c2c1CCCCC2Cc1ccc(F)cc1)NN1CCOCC1` (stereo not shown) [Cpd 127, (2E)-2-[1-(2,4-difluoro-phenyl)-8-(4-fluoro-benzyl)-1,4,5,6,7,8-hexahydro-cycloheptapyrazol-3-yl]-ethenesulfonic acid morpholin-4-ylamide], the “CB2 receptor binding percent inhibition” value at CB2 receptor (test concentration not stated) is on record as 0%. Moreover, the inhibition at 1 µM at CB1 receptor was found to be 36%.
With `O=C(NCc1ccccc1)c1n[nH]c2c1CCCCC2Cc1ccc(F)cc1` (stereo not shown) [Cpd 129, 8-(4-fluoro-benzyl)-1,4,5,6,7,8-hexahydro-cycloheptapyrazole-3-carboxylic acid benzylamide], the inhibition at 0.25 µM at CB2 receptor (test concentration 0.25 μM (footnote 8), read-out: CB2 receptor binding percent inhibition) was 86%. In addition, at CB1 receptor, the inhibition at 0.002 µM was found to be 92% and the “CB1 receptor binding percent inhibition” value was found to be 94%. The inhibition at 0.008 µM at CB1 receptor (read-out: CB1 receptor binding percent inhibition, test concentration 0.008 μM (footnote 12)) was found to be 90%. Also, the inhibition at 0.25 µM on CB1 receptor (read-out: CB1 receptor binding percent inhibition, test concentration 0.25 μM (footnote 8)) was found to be 100%.
In the case of `C[C@H](NC(=O)c1nn(-c2ccc(Cl)cc2Cl)c2c1CCCC/C2=C\c1ccc(Cl)cc1)c1ccccc1` [Cpd 139, (8E)-8-(4-chloro-benzylidene)-1-(2,4-dichloro-phenyl)-1,4,5,6,7,8-hexahydro-cycloheptapyrazole-3-carboxylic acid [(1S)-1-phenyl-ethyl]-amide], the inhibition at 0.2 µM was found to be 30% at CB2 receptor (read-out: CB2 receptor binding percent inhibition, test concentration 0.2 μM (footnote 2)) and 72% at CB1 receptor (setting [2]). Further, the IC50 at CB1 receptor (setting [1]) is 50 nM.
As for `C[C@@H](NC(=O)c1n[nH]c2c1CCCC/C2=C\c1ccc(Cl)cc1)C1CCCCC1` [Cpd 140, (8E)-8-(4-chloro-benzylidene)-1,4,5,6,7,8-hexahydro-cycloheptapyrazole-3-carboxylic acid [(1R)-1-cyclohexyl-ethyl]-amide], the “CB2 receptor binding percent inhibition” value on CB2 receptor (setting [3]) is “^(2)100%”. Also, the half-inhibitory concentration (IC50) on CB1 receptor (setting [1]) was 6 nM. On CB1 receptor (setting [2]), the inhibition at 0.2 µM stood at 97%.
With `C[C@H](NC(=O)c1n[nH]c2c1CCCC/C2=C\c1ccc(Cl)cc1)c1ccccc1` [Cpd 141, (8E)-8-(4-chloro-benzylidene)-1,4,5,6,7,8-hexahydro-cycloheptapyrazole-3-carboxylic acid [(1S)-1-phenyl-ethyl]-amide], the “CB2 receptor binding percent inhibition” value at CB2 receptor (setting [3]) is listed as “^(2)97%”. Besides, on CB1 receptor (setting [1]), the IC50 was 6 nM. Moreover, on CB1 receptor (read-out: CB1 receptor binding percent inhibition), the inhibition at 0.2 µM was 95%.
Turning to `C[C@H](NC(=O)c1n[nH]c2c1CCCC/C2=C\c1ccc(Cl)cc1)C1CCCCC1` [Cpd 143, (8E)-8-(4-chloro-benzylidene)-1,4,5,6,7,8-hexahydro-cycloheptapyrazole-3-carboxylic acid [(1S)-1-cyclohexyl-ethyl]-amide], the “CB2 receptor binding percent inhibition” value on CB2 receptor (setting [3]) is “^(2)100%”. Also, the IC50 on CB1 receptor (setting [1]) is 2 nM. At CB1 receptor, the inhibition at 0.002 µM is 55% and the “CB1 receptor binding percent inhibition” value is given as 77%. For the same compound, the inhibition at 0.2 µM on CB1 receptor (setting [2]) was 99%.
For the compound `O=C(NN1CCCCC1)c1n[nH]c2c1CCCC/C2=C\c1ccc(Cl)cc1` [Cpd 144, (8E)-8-(4-chloro-benzylidene)-1,4,5,6,7,8-hexahydro-cycloheptapyrazole-3-carboxylic acid piperidin-1-ylamide], the “CB2 receptor binding percent inhibition” value at CB2 receptor (setting [3]) is reported as “^(2)90%”. The IC50 on CB1 receptor (setting [1]) was 30 nM. Also, the inhibition at 0.2 µM at CB1 receptor (setting [2]) was found to be 69%.
`O=C(NN1CCOCC1)c1n[nH]c2c1CCCC/C2=C\c1ccc(Cl)cc1` [Cpd 145, (8E)-8-(4-chloro-benzylidene)-1,4,5,6,7,8-hexahydro-cycloheptapyrazole-3-carboxylic acid morpholin-4-ylamide]: the inhibition at 0.2 µM was found to be 68% at CB2 receptor (setting [4]) and 54% on CB1 receptor (setting [2]).
`O=C(Nc1ccncc1)c1nn(-c2ccc(Cl)cc2Cl)c2c1CCCC/C2=C\c1ccc(Cl)cc1` [Cpd 153, (8E)-8-(4-chloro-benzylidene)-1-(2,4-dichloro-phenyl)-1,4,5,6,7,8-hexahydro-cycloheptapyrazole-3-carboxylic acid pyridin-4-ylamide]: the inhibition at 0.2 µM at CB2 receptor (setting [4]) was 0%; at CB1 receptor (setting [2]) it was 44%.
`NS(=O)(=O)c1ccc(NC(=O)c2nn(-c3ccc(Cl)cc3Cl)c3c2CCCC/C3=C\c2ccc(Cl)cc2)cc1` [Cpd 154, (8E)-8-(4-chloro-benzylidene)-1-(2,4-dichloro-phenyl)-1,4,5,6,7,8-hexahydro-cycloheptapyrazole-3-carboxylic acid (4-sulfamoyl-phenyl)-amide]: the inhibition at 0.2 µM amounted to 7% at CB2 receptor (setting [4]) and 33% at CB1 receptor (setting [2]).
On to `CC(C)[C@@H](CO)NC(=O)c1nn(-c2ccc(Cl)cc2Cl)c2c1CCCC[C@@H]2Cc1cccc(Cl)c1` [Cpd 158, (8R)-8-(3-chloro-benzyl)-1-(2,4-dichloro-phenyl)-1,4,5,6,7,8-hexahydro-cycloheptapyrazole-3-carboxylic acid [(1S)-1-hydroxymethyl-2-methyl-propyl]-amide], for which the inhibition at 0.2 µM on CB2 receptor (setting [4]) worked out at 0%; on CB1 receptor (setting [2]), 14%.
`CC(C)[C@@H](CO)NC(=O)c1nn(-c2ccc(Cl)cc2Cl)c2c1CCCC[C@H]2Cc1cccc(Cl)c1` [Cpd 159, (8S)-8-(3-chloro-benzyl)-1-(2,4-dichloro-phenyl)-1,4,5,6,7,8-hexahydro-cycloheptapyrazole-3-carboxylic acid [(1S)-1-hydroxymethyl-2-methyl-propyl]-amide]: the inhibition at 0.2 µM was found to be 3% on CB2 receptor (setting [4]) and 40% at CB1 receptor (setting [2]).
For the compound `C[C@H](NS(=O)(=O)/C=C/c1n[nH]c2c1CCCCC2Cc1cccc(Cl)c1)c1ccccc1` (stereo partly drawn) [Cpd 160, (2E)-2-[8-(3-chloro-benzyl)-1,4,5,6,7,8-hexahydro-cycloheptapyrazol-3-yl]-ethenesulfonic acid [(1S)-1-phenyl-ethyl]-amide], the inhibition at 0.2 µM at CB2 receptor (setting [4]) worked out at 75%; on CB1 receptor (setting [2]), 2%.

The term IC50 denotes the concentration that gives 50% inhibition.
